Assay results taken from patent US20250326748A1, “COMPOUNDS AND METHODS FOR MODULATING SPLICING” (REMIX THERAPEUTICS INC., priority 2022, published 2025).
Where a name gives a salt, the structure may show the parent alone. Read-outs that look alike come from different tables or passages of the source.

Assays:
Type in all cases: cell-based, human
[1] = test system: Target C; test: HiBiT protein abundance assay, Target C (K562 HiBiT knock-in); conditions: HiBiT knock-in cells, 24 hours
Protocol: Cells were maintained in IMDM with 10% FBS. Before the assay, cells were diluted with […] growth media (IMDM+1% FBS media) and were seeded in a 384-well plate at a density of 10000 cells/well (for each cell line listed in Table 6). Each compound was prepared as a 10-point 3-old serial dilution in DMSO with the top dose at a final concentration of 10 μM in the well. Unmodified K562 cells were added at the previously specified density with DMSO to serve as an assay baseline and positive control (PC) and DMSO only with the respective modified cell lines was added to the negative control (NC) columns. Final DMSO concentration was kept at or below 0.25%. Treated cell plates were placed in an incubator at 37° C. with 5% CO2 for 24 hours. After 24 hours, 25 μL of Complete HiBit Lytic reagent was added to each well at room temperature (e.g. one plate requiring 10 ml Lytic Buffer, 100 μL LgBiT Protein, 200 μL Lytic Substrate), shaken for 5 minutes at 600 RPM, then left to sit for 10 minutes for signal to stabilize before reading on a Spark Cyto plate reader (Tecan) with a 500 ms measurement time.
To determine compound effects on protein abundance of each target in Table 6, the percent response for each respective cell line was calculated at each compound concentration as follows:
For the normalized response at each concentration, a four-parameter logistical regression was fit to the data and the response was interpolated at the 50% value to determine a concentration for protein abundance at 50% (IC50) the untreated control.

[2] = test system: SMN2 mRNA; test: Splicing RT-qPCR panel, SMN2 canonical junction (CJ) mRNA; conditions: Homo sapiens, read-out: SMN2 CJ (decrease in CJ mRNA levels, IC50)
Method in brief: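 A673 cells (DMEM, 10% FBS) or K562 cells (IMDM, 10% FBS) treated 24 h at 37 °C with an 11-point 3-fold dilution, top 10 uM, DMSO ≤0.25%. Canonical-junction mRNA quantified in lysates by RT-qPCR, normalised to GAPDH, GUSB or PPIA and to DMSO (2^−ΔΔCt), then converted to % response.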

[3] = test system: MYB mRNA; test: Splicing RT-qPCR assay, MYB canonical (CJ) and alternative (AJ) junction mRNA; conditions: Homo sapiens; for IC50: canonical junction mRNA; for AC50: alternative junction mRNA, read-out: MYB AJ (AC50, increase in AJ mRNA)
Method in brief: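 A673 cells (DMEM, 10% FBS) or K562 cells (IMDM, 10% FBS) were treated for 24 h at 37° C with an 11-point 3-fold dilution series, top dose 10 uM, DMSO ≤0.25%. Canonical and alternative junction mRNA was measured in lysates by one-step RT-qPCR. Normalization used PPIA for A673 and GAPDH or GUSB for K562.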

[4] = qPCR panel, read-out: MYB CJ (decrease in CJ mRNA levels, IC50)
[5] = RT-qPCR, A673 or K562 cells, 24 hours treatment
[6] = RT-qPCR, A673 or K562 cells, 24 hours treatment, read-out: MYB CJ (IC50, decrease in CJ mRNA)

| SMILES | IC50 [1] | IC50 [2] | IC50 [3, 4] | IC50 [3, 6] | AC50 [3, 5] |
| --- | --- | --- | --- | --- | --- |
| CNC1CCN(c2cnc3nc(-c4cc5cn(C)nc5c(C)c4O)ncc3c2)C1 (stereo not drawn) [Compound 104, 2,7-dimethyl-5-{6-[3-(methylamino)pyrrolidin-1-yl]pyrido[2,3-d]pyrimidin-2-yl}indazol-6-ol] | 100 to 1000 nM | < 100 nM | < 100 nM | < 100 nM | < 100 nM |
| CN[C@@H]1CCN(c2cnc3nc(-c4cc5cn(C)nc5c(C)c4O)ncc3c2)C1 [Compound 107, 2,7-dimethyl-5-{6-[(3R)-3-(methylamino)pyrrolidin-1-yl]pyrido[2,3-d]pyrimidin-2-yl}indazol-6-ol hydrochloride] | < 100 nM | < 100 nM | < 100 nM | < 100 nM | < 100 nM |
| Cc1cn2nc(-c3cnc4nc(C5CCNCC5)ccc4c3)cc(C)c2n1 [Compound 115, 6-(2,8-dimethylimidazo[1,2-b]pyridazin-6-yl)-2-(piperidin-4-yl)-1,8-naphthyridine] | 1000 to 10000 nM | 100 to 1000 nM | 1000 to 10000 nM | 1000 to 10000 nM | 1000 to 10000 nM |
| CN[C@H]1CCN(c2cnc3nc(-c4cc(C)c5nc(C)cn5n4)ccc3c2)C1 [Compound 116] | < 100 nM | < 100 nM | < 100 nM | < 100 nM | < 100 nM |
| CN[C@@H]1CCN(c2cnc3nc(-c4cc(C)c5nc(C)cn5n4)ccc3c2)C1 [Compound 117] | 100 to 1000 nM | < 100 nM | < 100 nM | < 100 nM | 100 to 1000 nM |
| CN[C@H]1CCN(c2cnc3nc(-c4cc5cn(C)nc5c(C)c4O)ncc3c2)C1 [Compound 120] | 1000 to 10000 nM | < 100 nM | < 100 nM | < 100 nM | < 100 nM |
| CN[C@H]1CN(c2cnc3nc(-c4cc5cn(C)nc5c(C)c4O)ccc3c2)C[C@H]1C [Compound 125, 2,7-dimethyl-5-{6-[(3R,4R)-3-methyl-4-(methylamino)379pyrrolidine-1-yl]-1,8-naphthyridin-2-yl}indazol-6-ol] | 100 to 1000 nM | < 100 nM | < 100 nM | < 100 nM | < 100 nM |
| CN[C@@H]1CN(c2cnc3nc(-c4cc5cn(C)nc5c(C)c4O)ccc3c2)C[C@H]1C [Compound 126, 2,7-dimethyl-5-{6-[(3R,4S)-3-methyl-4-(methylamino)382pyrrolidine-1-yl]-1,8-naphthyridin-2-yl}indazol-6-ol] | 1000 to 10000 nM | < 100 nM | 100 to 1000 nM | 100 to 1000 nM | 100 to 1000 nM |
| Cc1cn2cc(-c3cc(Cl)c4cc(N5C[C@H](C)N[C@@H](C)C5)cnc4n3)cc(F)c2n1 [Compound 298] | 1000 to 10000 nM | – | < 100 nM | < 100 nM | < 100 nM |
| Cc1cn2nc(-c3cc(Cl)c4cc(N5C[C@H](C)N[C@@H](C)C5)cnc4n3)cc(C)c2n1 [Compound 336] | 100 to 1000 nM | – | < 100 nM | < 100 nM | < 100 nM |
| Cc1c(O)c(-c2cc(Cl)c3cc(N4CCNC5(CC5)C4)cnc3n2)cc2cn(C)nc12 [Compound 381] | 1000 to 10000 nM | – | < 100 nM | < 100 nM | < 100 nM |
| Cc1cn2nc(-c3ccc4c(Cl)c(N5C[C@H](C)N[C@@H](C)C5)cnc4n3)cc(C)c2n1 [Compound 393, 5-chloro-2-{2,8-dimethylimidazo[1,2-b]pyridazin-6-yl}-6-[(3S,5S)-3,5-dimethylpiperazin-1-yl]-1,8-naphthyridine] | 100 to 1000 nM | – | < 100 nM | < 100 nM | < 100 nM |

Second part, led by results:

| IC50 [1] | IC50 [2] | IC50 [3, 4] | IC50 [3, 6] | SMILES | AC50 [3, 5] |
| --- | --- | --- | --- | --- | --- |
| 100 to 1000 nM | < 100 nM | < 100 nM | < 100 nM | CN[C@@H]1CN(c2cnc3nc(-c4cc5cn(C)nc5c(C)c4O)ccc3c2)C[C@H]1F (single isomer, unassigned) [Compound 130] | < 100 nM |
| 1000 to 10000 nM | < 100 nM | 100 to 1000 nM | 100 to 1000 nM | CN[C@H]1CN(c2cnc3nc(-c4cc5cn(C)nc5c(C)c4O)ccc3c2)C[C@@H]1F (single isomer, unassigned) [Compound 131] | 100 to 1000 nM |
| 100 to 1000 nM | < 100 nM | < 100 nM | < 100 nM | Cc1c(O)c(-c2ccc3cc(N4CCC(NCC5CC5)C4)cnc3n2)cc2cn(C)nc12 (stereo in doubt) [Compound 119, 5-{6-[(3R)-3-[(cyclopropylmethyl)amino]pyrrolidin-1-yl]-1,8-naphthyridin-2-yl}-2,7-dimethylindazol-6-ol] | < 100 nM |
| < 100 nM | < 100 nM | < 100 nM | < 100 nM | Cc1c(O)c(-c2ccc3cc(N4CCC(NCC5CC5)C4)cnc3n2)cc2cn(C)nc12 (stereo not drawn) [Compound 105, 5-(6-{3-[(cyclopropylmethyl)amino]pyrrolidin-1-yl}-1,8-naphthyridin-2-yl)-2,7-dimethylindazol-6-ol] | < 100 nM |
| < 100 nM | < 100 nM | < 100 nM | < 100 nM | CCNC1CCN(c2cnc3nc(-c4cc5cn(C)nc5c(F)c4O)ccc3c2)C1 (stereo not drawn) [Compound 106, 5-{6-[3-(ethylamino)pyrrolidin-1-yl]-1,8-naphthyridin-2-yl}-7-fluoro-2-methylindazol-6-ol] | < 100 nM |
| 100 to 1000 nM | < 100 nM | < 100 nM | < 100 nM | CN[C@@H]1CCN(c2cnc3nc(-c4cc5cn(C)nc5c(C)c4O)ccc3c2)C1 [Compound 112] | < 100 nM |
| < 100 nM | < 100 nM | < 100 nM | < 100 nM | Cc1c(O)c(-c2ccc3cc(N4CC[C@@H](NCC5CC5)C4)cnc3n2)cc2cn(C)nc12 [Compound 118] | < 100 nM |
| < 100 nM | < 100 nM | < 100 nM | < 100 nM | CCNC1CCN(c2cnc3nc(-c4cc5cn(C)nc5c(C)c4O)ccc3c2)C1 (stereo not drawn) [Compound 122, 5-{6-[3-(ethylamino)pyrrolidin-1-yl]-1,8-naphthyridin-2-yl}-2,7-dimethylindazol-6-ol] | < 100 nM |
| 100 to 1000 nM | < 100 nM | < 100 nM | < 100 nM | CCN[C@H]1CCN(c2cnc3nc(-c4cc5cn(C)nc5c(C)c4O)ccc3c2)C1 [Compound 123] | < 100 nM |
| < 100 nM | < 100 nM | < 100 nM | < 100 nM | CCN[C@@H]1CCN(c2cnc3nc(-c4cc5cn(C)nc5c(C)c4O)ccc3c2)C1 [Compound 124] | < 100 nM |
| 100 to 1000 nM | < 100 nM | < 100 nM | < 100 nM | CN[C@H]1CN(c2cnc3nc(-c4cc5cn(C)nc5c(C)c4O)ccc3c2)C[C@@H]1C [Compound 127, 2,7-dimethyl-5-{6-[(3S,4R)-3-methyl-4-(methylamino)384pyrrolidine-1-yl]-1,8-naphthyridin-2-yl}indazol-6-ol] | 100 to 1000 nM |
| 100 to 1000 nM | < 100 nM | < 100 nM | < 100 nM | CN[C@@H]1CN(c2cnc3nc(-c4cc5cn(C)nc5c(C)c4O)ccc3c2)C[C@@H]1C [Compound 128] | 100 to 1000 nM |
| 100 to 1000 nM | < 100 nM | 100 to 1000 nM | 100 to 1000 nM | CN[C@H]1CN(c2cnc3nc(-c4cc5cn(C)nc5c(C)c4O)ccc3c2)C[C@H]1F [Compound 129, 5-{6-[(3R,4S)-3-fluoro-4-(methylamino)pyrrolidin-1-yl]-1,8-naphthyridin-2-yl}-2,7-dimethylindazol-6-ol] | 100 to 1000 nM |
| 100 to 1000 nM | < 100 nM | 100 to 1000 nM | 100 to 1000 nM | CN[C@@H]1CN(c2cnc3nc(-c4cc5cn(C)nc5c(C)c4O)ccc3c2)C[C@@H]1F [Compound 132, 5-{6-[(3S,4R)-3-fluoro-4-(methylamino)pyrrolidin-1-yl]-1,8-naphthyridin-2-yl}-2,7-dimethylindazol-6-ol] | < 100 nM |
